Measurements from patent US9682940B2, “Indazole derivatives useful as CB-1 inverse agonists” (Janssen Pharmaceutica NV, priority 2015, dated 2017).
pEC50: −log10 of the molar value.

What was measured:
[1] = target: Human CB1R (Cannabanoid receptor 1) (Homo sapiens (Human), UniProt P21554); experiment: CB-1 in vitro cAMP (HTRF) assay in HEK-293 cells; assay type: cell-based; details: HEK-293 cells stably transfected with human CB1R, 250 nM Forskolin, mean where tested more than once, read-out: CB-1 (HEK_cAMP) EC50
Chain of Human CB1R (Cannabanoid receptor 1) (P21554 whole entry): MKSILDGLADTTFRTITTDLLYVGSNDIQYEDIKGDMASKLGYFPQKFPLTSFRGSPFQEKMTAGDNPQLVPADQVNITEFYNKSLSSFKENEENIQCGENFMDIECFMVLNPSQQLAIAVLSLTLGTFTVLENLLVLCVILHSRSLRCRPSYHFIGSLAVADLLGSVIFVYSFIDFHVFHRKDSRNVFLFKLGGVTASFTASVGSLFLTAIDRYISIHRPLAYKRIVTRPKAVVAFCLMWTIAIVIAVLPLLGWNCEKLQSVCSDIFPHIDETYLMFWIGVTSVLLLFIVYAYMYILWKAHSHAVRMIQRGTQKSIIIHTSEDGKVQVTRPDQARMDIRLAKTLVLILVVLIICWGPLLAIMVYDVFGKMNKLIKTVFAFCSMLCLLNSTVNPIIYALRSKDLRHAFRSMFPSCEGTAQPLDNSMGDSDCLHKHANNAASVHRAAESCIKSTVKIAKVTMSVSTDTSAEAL
Source text: (§1) CB1 and CB2 receptors are Gi-coupled GPCR. Activation of CB1 and CB2 receptors results in a decrease in cAMP production. An inverse agonist of the CB1 or CB2 receptor results in the opposite effect, an increase of cAMP production. The principle of this assay is based on HTRF® technology (Homogeneous Time-Resolved Fluorescence). The method is a competitive immunoassay between native cAMP produced by cells and the cAMP labeled with the fluorophore d2. The tracer binding is quantified by a Mab anti-cAMP labeled with Eu3+TBP-NHS Cryptate (supplied as part of the assay kit). The specific signal (i.e. energy transfer) is inversely proportional to the concentration of cAMP in the standard or sample.
(§2) Human CB1R (Cannabanoid receptor 1) was stably transfected in HEK-293 cells (DiscoveRx, cat: 93-0200C1). Human CB2R (Cannabanoid receptor 2) was stably transfected in HEK-293 cells (DiscoveRx, cat: 93-0201C1). Cell cultures were maintained in media: DMEM (Invitrogen Cat#12430-054) supplemented with 10% HI FBS (Invitrogen Cat#16140-071), 1% L-glutamine (Invitrogen Cat#25030-081), 0.2 mg/ml Hygromycin B (Invitrogen Cat#10687-010), 600 μg/mL G418 (Invitrogen Cat#10131-035), and 1× Penn/Strep (Invitrogen 15140-122). After cell expansion, aliquots were cryo-stored in media containing 5% DMSO (Pierce Cat#20684).
(§3) One day prior to experiments media was warmed to 37° C. and the cryo-stored cells were thawed in a 37° C. water bath. The cells were then added to media (10× volume) and the mixture was centrifugated at 1000 RPM for 5 min. The supernate was removed and the cells were re-suspended in media. A sample of the cell suspension was evaluated on a Cedex XS automated cell counter (Innovatis Systems) to determine viable cells/ml. Additional media was added to the cells to achieve a final cell density of 4E5 cells/mL. The cells were then plated into 384 well PDL white solid bottom plates (Greiner, Cat#781945) at 20 μL per well using a Multidrop (Thermo Scientific). Cells were removed from Row P (location of cAMP standards). Two columns of cells were plated into a clear bottom 384 well PDL coated plate (Greiner, Cat#781944) to view confluence the day of the assay. The cell plates were lidded and stored for 15 minutes in a hood, then transferred to an incubator (37° C., 5% CO2, 95% humidity) overnight.
(§4) DMSO was added to all wells of 384 well V bottom polystyrene plate (Greiner, Cat#781280) except to columns 1 and 13, rows O and P and wells M13-M23 and N13-N23. Test compounds (60 μL, 10 mM) were added to Column 1 and 13 (A1 through N1 and A13 through L13). Test compounds were serially diluted 1/3 by transferring and mixing 20 μl sample with 40 μL DMSO.
(§5) DMSO (40 μL) was added to wells of 384 well V bottom polystyrene plate: O2 through O11, M14 through M23, N14 through N23, and O14 through 023. AM630 (also known as [6-iodo-2-methyl-1-[2-(4-morpholinyl)ethyl]-1H-indol-3-yl](4-methoxyphenyl)-methanone, Cayman Chemical, Cat#10006974) (60 μL, 10 mM) was added to 01; and 1-(2,4-dichlorophenyl)-7-[(4-fluorophenyl)methylene]-4,5,6,7-tetrahydro-N-1-piperidinyl-1H-indazole-3-carboxamide (60 μL, 10 mM) was added to N13. The control was serially diluted 1/3 by transferring and mixing 20 μl sample with 40 μL DMSO. This process resulted 11 doses per control, 10 mM to […].
(§6) Cells plated the day prior to the assay in clear bottom plates were viewed on an inverse microscope to ensure confluency in the range of 60-75%. […]

[2] = target: Human CB2R (Cannabanoid receptor 2) (Homo sapiens (Human), UniProt P34972); experiment: CB-2 in vitro cAMP (HTRF) assay in HEK-293 cells; assay type: cell-based; details: HEK-293 cells stably transfected with human CB2R, 250 nM Forskolin, mean where tested more than once, read-out: CB-2 (HEK_cAMP) EC50
Chain of Human CB2R (Cannabanoid receptor 2) (P34972 whole entry): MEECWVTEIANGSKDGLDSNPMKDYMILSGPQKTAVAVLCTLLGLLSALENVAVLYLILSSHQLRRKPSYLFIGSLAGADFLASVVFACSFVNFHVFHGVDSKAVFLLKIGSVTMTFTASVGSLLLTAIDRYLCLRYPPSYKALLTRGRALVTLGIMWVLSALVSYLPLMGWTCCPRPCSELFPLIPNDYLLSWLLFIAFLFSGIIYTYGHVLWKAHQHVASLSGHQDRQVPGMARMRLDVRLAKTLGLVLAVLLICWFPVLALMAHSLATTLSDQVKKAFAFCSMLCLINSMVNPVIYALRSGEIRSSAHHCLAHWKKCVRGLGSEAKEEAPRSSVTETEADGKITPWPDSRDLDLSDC
Source text: as §1, §2, §3, §4, §5, §6

| Compound | pEC50 [1] | pEC50 [2] |
| --- | --- | --- |
| O=C(O)c1cccc(S(=O)(=O)N2CCC(c3nn(C4CC4)c4ccc(C(c5ccc(Cl)cc5)c5ccc(Cl)cc5)cc34)CC2)c1 [Compound 88] | 6.94 | < 5.00 |
| O=C(O)c1ccc(CN2CCC(c3c4cc(C(c5ccc(Cl)cc5)c5ccc(Cl)cc5)ccc4nn3C3CC3)CC2)o1 [Compound 228, 5-((4-(5-(bis(4-chlorophenyl)methyl)-2-cyclopropyl-2H-indazol-3-yl)piperidin-1-yl)methyl)furan-2-carboxylic acid] | 7.70 | < 5.00 |
| O=C(CO)N1CCC(c2nn(C3CC3)c3ccc(C(c4ccc(Cl)cc4)c4ccc(Cl)cc4)cc23)CC1 [Compound 91] | 7.41 | < 5.00 |
| NC(=O)c1ccccc1C(=O)N1CCC(c2c3cc(C(c4ccc(Cl)cc4)c4ccc(Cl)cc4)ccc3nn2C2CC2)CC1 [Compound 141] | 5.21 | < 5.00 |
| NC(=O)C(=O)N1CCC(c2c3cc(C(c4ccc(Cl)cc4)c4ccc(Cl)cc4)ccc3nn2C2CC2)CC1 [Compound 138] | 6.23 | < 5.00 |
| COC(=O)c1cccc(CN2CCC(c3n[nH]c4ccc(C(c5ccc(Cl)cc5)c5ccc(Cl)cc5)cc34)CC2)c1 [Compound 259] | 6.43 | < 4.38 |
| O=C(O)CS(=O)(=O)N1CCC(c2c3cc(C(c4ccc(Cl)cc4)c4ccc(Cl)cc4)ccc3nn2C2CC2)CC1 [Compound 131] | 5.02 | < 5.00 |
| NC(=O)c1ccc(C(c2ccc(Cl)cc2)c2ccc3nn(C4CC4)c(C4CCN(S(=O)(=O)C(F)(F)F)CC4)c3c2)cc1 (stereo not shown) [Compound 249, 4-((4-chlorophenyl)(2-cyclopropyl-3-(1-(trifluoromethylsulfonyl)piperidin-4-yl)-2H-indazol-5-yl)methyl)benzamide] | 7.82 | < 5.00 |
| NC(=O)c1csc(CN2CCC(c3c4cc(C(c5ccc(Cl)cc5)c5ccc(Cl)cc5)ccc4nn3C3CC3)CC2)c1 [Compound 237, 5-((4-(5-(bis(4-chlorophenyl)methyl)-2-cyclopropyl-2H-indazol-3-yl)piperidin-1-yl)methyl)thiophene-3-carboxamide] | 8.30 | < 5.00 |
| COC(=O)c1ccc(S(=O)(=O)N2CCC(c3n[nH]c4ccc(C(c5ccc(Cl)cc5)c5ccc(Cl)cc5)cc34)CC2)cc1 [Compound 24] | 6.82 | < 5.00 |
| NC(=O)Cc1ccc(N2CCC(c3nn(C4CC4)c4ccc(C(c5ccc(Cl)cc5)c5ccc(Cl)cc5)cc34)CC2)cc1 [Compound 182] | 6.57 | < 5.00 |
| NC(=O)c1cccc(N2CCC(c3nn(C4CC4)c4ccc(C(c5ccc(Cl)cc5)c5ccc(Cl)cc5)cc34)CC2)c1 [Compound 179] | 7.03 | < 5.00 |
| O=S(=O)(N1CCC(c2n[nH]c3ccc(C(c4ccc(Cl)cc4)C4CCCCC4)cc23)CC1)C(F)(F)F (stereo not shown) [Compound 280] | 6.25 | < 4.38 |
| O=C(O)CCS(=O)(=O)N1CCC(c2nn(C3CC3)c3ccc(C(c4ccc(Cl)cc4)c4ccc(Cl)cc4)cc23)CC1 [Compound 106] | 5.04 | < 5.00 |
| Cn1nc(C2CCN(S(=O)(=O)c3ccc(C(N)=O)cc3)CC2)c2cc(C(c3ccc(Cl)cc3)c3ccc(Cl)cc3)ccc21 [Compound 64] | 7.62 | < 5.00 |
| CC(C)(C)OC(=O)N1CCC(Nc2n[nH]c3ccc(C(c4ccc(Cl)cc4)c4ccc(Cl)cc4)cc23)CC1 [Compound 74] | 6.79 | < 5.00 |
| O=C(O)c1ccc(S(=O)(=O)N2CCC(c3c4cc(C(c5ccc(Cl)cc5)c5ccc(Cl)cc5)ccc4nn3C3CC3)CC2)o1 [Compound 171, 5-(4-(5-(bis(4-chlorophenyl)methyl)-2-cyclopropyl-2H-indazol-3-yl)piperidin-1-ylsulfonyl)furan-2-carboxylic acid] | 8.52 | < 5.00 |
